Results on 6 compounds are retold here after patent US20180099917A1, “REVERSIBLY REDUCIBLE MATERIALS AND USE THEREOF” (University of Kentucky Research Foundation, priority 2016, published 2018).

A short description of data set [1]: Solubility in acetonitrile. The class given is physicochemical. The method, then: In some embodiments, modifying the Z group in formula I above adjusts the solubility of the resulting compound. For example, in one embodiment, compound number 1 has a solubility of 0.1 M in acetonitrile (electrolyte solution), while compound number 2 has a solubility of 0.3 M in acetonitrile.
(§1) Following the formation of reversibly reducible materials as discussed above, various compounds were tested for structure, solubility, and reduction potentials. The results are provided in Table 2 below, with solubility shown in acetonitrile at 23° C. and reduction potentials shown versus ferrocene.

Data set [2] is described as follows: Reduction potentials versus ferrocene (electrochemistry in acetonitrile). Type of data set: physicochemical. The settings on record: for First Reduction / Second Reduction: reduction potential versus ferrocene.
Source text: The reversibly reducible material according to one or more of the embodiments disclosed herein is soluble in at least one solvent for redox flow batteries. Accordingly, also provided herein is a negolyte for use in redox-flow batteries, the negolyte including the reversibly reducible material and a redox flow battery solvent. Such solvents include, but are not limited to, acetonitrile, propylene glycol, propylene carbonate, dimethyl acetamide, and dimethyl formamide. […] In some embodiments, the negolyte also includes an electrolyte. Suitable electrolytes include, but are not limited to, tetraalkylammonium hexafluorophosphate, perchlorate, tetrafluoroborate, triflate, perfluorobutylsulfonate, lithium salts thereof (e.g., lithium hexafluorophosphate or perchlorate), other organic-soluble materials, any other suitable electrolyte, or a combination thereof. Other suitable electrolytes include, but are not limited to, sulfuric acid and/or potassium hydroxide. An example of the electrochemical trace, with internal ferrocene standard in acetonitrile using tetrabutylammonium hexafluorophosphate electrolyte, is shown in FIG. 1. Although discussed above with regard to non-aqueous redox flow batteries, as will be appreciated by those skilled in the art the instant disclosure is not so limited and may include aqueous redox flow batteries as well.
as §1

The mark [3] stands for this setting: acetonitrile (electrolyte solution), organic solvent or mixture, read-out: solubility in acetonitrile.
[4] abbreviates: organic solvent or mixture, in acetonitrile at 23° C., read-out: Solubility.

Values after ≈ are worked out from the molar mass of the structure shown. Like-named read-outs stand apart in the source and are kept apart here.

Consider `COCCNC1=C(Cl)C(=O)c2ccccc2C1=O` [Compound 10], for which, in data set [1] (Cl at the R5 position versus identical compound without Cl), the “solubility compared to compound 2” value is reported as “increases the solubility”.
For the compound `COCCOCCOCCNC1=CC(=O)c2ccccc2C1=O`, in data set [2], the “First Reduction” value was −1.295 V and the “Second Reduction” value was −1.784 V. Also, in data set [1] (in acetonitrile at 23° C.), the solubility (as a rule, the concentration that dissolves in the medium under given conditions) is “Miscible”.
Turning to `CCN(CC)C1=CC(=O)c2ccccc2C1=O` [Compound 11], the “First Reduction” value in data set [2] is −1.362 V. For the same compound, in data set [2], the “Second Reduction” value was −1.686 V. The electrochemistry properties result in data set [2] (second group on the N atom) was “excellent electrochemistry properties”. Moreover, the solubility in data set [1] (setting [3]) and in data set [1] (setting [4]) was 700 mM (≈ 160 mg/mL) each time.
Regarding `COCCNC1=CC(=O)c2ccccc2C1=O` [Compound 2], in data set [2], the “First Reduction” value is −1.316 V and the “Second Reduction” value is −1.798 V. For the same compound, the solubility in data set [1] (setting [3]) turned out to be 300 mM (≈ 69.4 mg/mL). In data set [1] (setting [4]), the solubility is 300 mM (≈ 69.4 mg/mL).
As for `COCCN(CCOC)C1=CC(=O)c2ccccc2C1=O`, in data set [2], the “First Reduction” value was −1.295 V and the Second Reduction was -1.67 V. For the same compound, the solubility result in data set [1] (in acetonitrile at 23° C.) was “Miscible”.
For the compound `CC(C)CNC1=CC(=O)c2ccccc2C1=O` [Compound 1], in data set [2], the “First Reduction” value is given as −1.266 V and the “Second Reduction” value was −1.841 V. Besides, in data set [1] (setting [3]), the solubility came to 100 mM (≈ 22.9 mg/mL). In data set [1] (setting [4]), the solubility turned out to be 100 mM (≈ 22.9 mg/mL).
